Common to all, as to assay: DTP human tumour cell line panel, 48 h
Assay [1] relates to MALME-3M melanoma.
Assay [2] relates to HOP-62 NSCLC.
The subject of assay [3] is M14 melanoma.
The subject of assay [4] is HOP-92 NSCLC.
The subject of assay [5] is OVCAR-8 ovarian.
The subject of assay [6] is OVCAR-5 ovarian.
For assay [7], the system named is HCT-116 colon.
Assay [8] concerns SK-MEL-28 melanoma.
Assay [9] relates to OVCAR-4 ovarian.
The subject of assay [10] is SN12C renal.

Drawing on PubChem BioAssay (NCI), this text covers TGI and GI50 for 13 molecules.

Each structure is given as a SMILES string.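 Where inhibition never reached the appropriate level, the endpoint shown equals the highest concentration tested. Otherwise, values were interpolated linearly from a five-concentration, 48-hour dose response in 96-well plates. At the GI50, growth is halved. TGI: total growth inhibition.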

For `CN1C(=O)n2c(nc3ccccc32)C(N=[N+]=[N-])(N=[N+]=[N-])C1=O` (stereo not given), the TGI in assay [1], in assay [2], in assay [3], in assay [4], in assay [5] and in assay [6] was more than 100 µM each time. Moreover, the total growth inhibition concentration (TGI) in assay [7], in assay [8] and in assay [9] was more than 100 µM each time.
`CC(C#N)c1cn(S(=O)(=O)c2ccccc2)c2ccccc12` (stereo not given): the TGI was more than 100 µM in assay [1]; more than 100 µM in assay [2]; more than 100 µM in assay [3]; 53.8 µM in [4]; more than 100 µM in assay [5]; more than 100 µM in assay [6]. Moreover, the TGI in [7], in assay [8] and in [9] was more than 100 µM in each case.
On to `Cc1ccc(-c2csc(N(C(=O)N3CCN(c4cc5c(cc4F)c(=O)c(C(=O)O)cn5C4CC4)CC3)c3ccccc3)n2)cc1`, for which the GI50 is 0.389 µM in assay [2]; 0.394 µM in [3]; 0.213 µM in assay [4]; 0.405 µM in assay [5]; 0.333 µM in assay [7]; 0.582 µM in [8]. The TGI in assay [2] was more than 46.3 µM; in assay [3] it was more than 100 µM; in [4], 0.798 µM; in [5], more than 100 µM; in assay [7] it was more than 100 µM; in [8], more than 100 µM.
Consider `C[C@H](c1ccc(Cl)cc1N)N1C(=O)c2cc(I)ccc2N(CCCN2CCN(C)CC2)C(=O)[C@@H]1c1ccc(Cl)cc1`, for which the GI50 in assay [1] is 0.242 µM; in [3], 1.96 µM; in [6], 1.77 µM; in assay [7] it was 1.3 µM; in [8], 1.69 µM; in assay [10] it was 1.59 µM. Also, the GI50 in assay [9] was 1.74 µM. The TGI in assay [1] stood at 1.27 µM; in assay [3] it was 3.65 µM; in assay [6] it was 3.44 µM; in assay [7] it was 2.63 µM; in [8], 3.08 µM; in assay [10], 3.03 µM. Besides, the TGI in assay [9] came out at 3.43 µM.
As to `COc1cc(C(=O)C/C(CCC(=O)Nc2ccccc2[N+](=O)[O-])=N\NC(=O)C(N)=O)ccc1O`, the TGI in [2], in assay [3], in assay [4], in [5], in assay [6] and in assay [7] was more than 100 µM each time. For the same molecule, the TGI in [8] and in [9] was more than 100 µM throughout.
With `CCC[CH2][Sn]1([CH2]CCC)[O]C(c2ccccn2)S(=O)(=O)[O]1` (stereo not given), the GI50 was 1.63 µM in assay [1]; 28.1 µM in assay [2]; 3.57 µM in assay [3]; 1.41 µM in assay [4]; 2.06 µM in assay [5]; 11 µM in assay [7]. The GI50 in assay [8] is 1.94 µM; in assay [10], 9.11 µM; in assay [9], 6.86 µM. Moreover, the TGI in [1] is 3.27 µM; in assay [2] it was 43 µM; in assay [3], 11.2 µM; in assay [4] it was 2.86 µM; in assay [5] it was 4.79 µM; in assay [7] it was 22.9 µM. The results for the TGI in assay [8], in [10] and in [9] were 3.76 µM, 21.1 µM and 20.1 µM, respectively.
Regarding `COC1=CC(=O)c2ccc(C(C)C)cc2C1(C)C1=NC(C)(C)CO1` (stereo not given), the TGI in assay [1], in assay [2], in assay [3], in [4], in assay [5] and in [7] was more than 100 µM each time. Besides, the TGI in [8], in [10] and in assay [9] was more than 100 µM throughout.
For `[N-]=[N+]=NC1(N=[N+]=[N-])C(=O)NN=C(c2ccccc2)C1=O` (stereo not given), the TGI in assay [1] was more than 100 µM; in assay [2], more than 100 µM; in [3], more than 100 µM; in assay [4], more than 100 µM; in [5] it was more than 100 µM; in assay [7] it was 38.7 µM. Besides, the TGI in assay [8] is 31.9 µM; in assay [10] it was more than 100 µM; in assay [9] it was more than 100 µM.
As for `COc1ccc2[nH]c3c4c(c5cc(C(C)(C)C)ccc5c3c2c1)C(=O)N(c1ccccc1)C4=O`, the TGI in [1], in assay [2], in [3], in assay [5], in [6] and in [7] was more than 100 µM in each case. Further, the TGI in assay [8] and in assay [9] was more than 100 µM in each case.
On to `O=c1[nH]cnc2c(C3OC(CO)C(O)C3O)[nH]nc12` (stereo not given), for which the total growth inhibition concentration (TGI) in assay [1] was more than 100 µM; in [2] it was more than 100 µM; in assay [3] it was more than 100 µM; in assay [5], 70.3 µM; in [6], more than 100 µM; in assay [7], more than 100 µM. For the same molecule, the results for the concentration for total growth inhibition (TGI) in assay [8], in assay [10] and in assay [9] were more than 100 µM, more than 100 µM and 48.6 µM, respectively.
On to `C/C(=N\O)c1sc(-n2nc(-c3ccccc3)cc2-c2ccccc2)nc1C`, for which the TGI came out at 31 µM in [1]; 22.2 µM in assay [2]; 18.3 µM in [3]; 18.1 µM in assay [5]; 17.1 µM in assay [7]; 17.8 µM in assay [8]. Besides, the concentration for total growth inhibition (TGI) in [10] turned out to be 15.4 µM.
Regarding `Cc1cc(C)c(C(=O)O)c(N)c1O`, the TGI in [1], in assay [2], in assay [3], in assay [5], in assay [6] and in [7] was more than 100 µM each time. Moreover, the TGI in assay [8], in [10] and in assay [9] was more than 100 µM throughout.
As for `CCOC(=O)C12CCCC1(O)N(NC(=O)c1cccc(Cl)c1)C(C)=C2C(=O)OC` (stereo not given), the TGI in [1], in assay [2], in assay [3], in assay [5], in assay [6] and in assay [7] was more than 100 µM throughout. Moreover, the TGI in [8], in assay [10] and in [9] was more than 100 µM in each case.
